Measurements published in patent US20100317715A1, “METHODS FOR TREATING NEUROPSYCHIATRIC CONDITIONS” (priority 2007, published 2010).
Like-named read-outs stand apart in the source and are kept apart here.

How the values were obtained:
[1] = target: PAK6 (Homo sapiens, UniProt Q9NQU5); experiment: biochemical; type: binding; conditions: PAK Inhibitor Affinity Assay
[2] = target: PAK2 (Homo sapiens, UniProt Q13177); experiment: Competitive binding assay (phage-displayed kinase vs immobilized staurosporine bait), PAK2
Chain of PAK2 (Q13177 whole entry): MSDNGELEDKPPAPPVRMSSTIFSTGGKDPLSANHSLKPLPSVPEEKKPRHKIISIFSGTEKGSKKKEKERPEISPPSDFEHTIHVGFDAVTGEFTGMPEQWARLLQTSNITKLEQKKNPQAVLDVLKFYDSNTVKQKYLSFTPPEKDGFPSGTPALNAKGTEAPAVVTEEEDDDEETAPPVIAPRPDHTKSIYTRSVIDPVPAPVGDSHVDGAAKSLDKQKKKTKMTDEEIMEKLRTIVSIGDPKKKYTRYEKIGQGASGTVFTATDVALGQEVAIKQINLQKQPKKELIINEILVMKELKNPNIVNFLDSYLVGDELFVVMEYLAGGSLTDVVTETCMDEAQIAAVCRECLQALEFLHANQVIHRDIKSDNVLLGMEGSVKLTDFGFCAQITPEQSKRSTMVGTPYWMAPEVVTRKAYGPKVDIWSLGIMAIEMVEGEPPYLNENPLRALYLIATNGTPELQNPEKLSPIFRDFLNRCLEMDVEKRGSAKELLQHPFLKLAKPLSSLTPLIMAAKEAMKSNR

[3] = target: PAK1 (Homo sapiens, UniProt Q13153); experiment: Competitive binding assay (phage-displayed kinase vs immobilized staurosporine bait), PAK1
Chain of PAK1 (Q13153 whole entry): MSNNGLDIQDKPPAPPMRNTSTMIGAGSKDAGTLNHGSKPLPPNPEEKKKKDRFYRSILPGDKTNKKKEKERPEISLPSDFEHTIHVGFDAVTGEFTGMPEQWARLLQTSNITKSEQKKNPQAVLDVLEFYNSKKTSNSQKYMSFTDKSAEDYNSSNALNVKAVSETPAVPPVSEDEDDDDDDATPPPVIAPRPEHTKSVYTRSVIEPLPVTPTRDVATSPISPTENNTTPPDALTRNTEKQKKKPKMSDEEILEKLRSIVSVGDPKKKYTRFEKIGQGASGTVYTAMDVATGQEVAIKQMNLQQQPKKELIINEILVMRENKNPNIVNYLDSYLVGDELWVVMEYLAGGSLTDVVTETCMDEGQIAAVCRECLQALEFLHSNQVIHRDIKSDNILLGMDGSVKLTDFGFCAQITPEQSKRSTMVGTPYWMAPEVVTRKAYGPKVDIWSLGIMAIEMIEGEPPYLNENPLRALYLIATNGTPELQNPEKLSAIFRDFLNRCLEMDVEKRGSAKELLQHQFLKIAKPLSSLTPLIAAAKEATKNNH

[4] = target: PAK4 (Homo sapiens, UniProt O96013); experiment: Competitive binding assay (phage-displayed kinase vs immobilized staurosporine bait), PAK4; conditions: PAK Inhibitor Affinity Assay
Chain of PAK4 (O96013 whole entry): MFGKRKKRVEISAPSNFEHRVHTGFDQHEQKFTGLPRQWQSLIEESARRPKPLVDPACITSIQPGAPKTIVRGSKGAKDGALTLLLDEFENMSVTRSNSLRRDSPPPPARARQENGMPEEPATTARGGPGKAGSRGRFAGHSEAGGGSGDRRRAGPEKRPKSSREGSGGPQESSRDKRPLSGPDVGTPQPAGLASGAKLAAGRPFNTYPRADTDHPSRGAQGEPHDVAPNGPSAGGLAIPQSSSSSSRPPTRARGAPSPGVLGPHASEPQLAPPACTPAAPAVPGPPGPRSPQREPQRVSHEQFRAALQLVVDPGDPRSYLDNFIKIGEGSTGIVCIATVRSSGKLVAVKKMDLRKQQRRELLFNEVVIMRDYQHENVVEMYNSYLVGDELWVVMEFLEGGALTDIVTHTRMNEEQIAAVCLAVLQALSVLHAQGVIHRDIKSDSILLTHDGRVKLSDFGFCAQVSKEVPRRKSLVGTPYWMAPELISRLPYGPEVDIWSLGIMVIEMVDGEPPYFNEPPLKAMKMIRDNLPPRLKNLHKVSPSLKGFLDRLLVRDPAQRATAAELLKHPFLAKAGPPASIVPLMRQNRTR

[5] = target: PAK7 (Homo sapiens, UniProt Q9P286); experiment: Competitive binding assay (phage-displayed kinase vs immobilized staurosporine bait), PAK7; conditions: PAK Inhibitor Affinity Assay
Chain of PAK7 (Q9P286 whole entry): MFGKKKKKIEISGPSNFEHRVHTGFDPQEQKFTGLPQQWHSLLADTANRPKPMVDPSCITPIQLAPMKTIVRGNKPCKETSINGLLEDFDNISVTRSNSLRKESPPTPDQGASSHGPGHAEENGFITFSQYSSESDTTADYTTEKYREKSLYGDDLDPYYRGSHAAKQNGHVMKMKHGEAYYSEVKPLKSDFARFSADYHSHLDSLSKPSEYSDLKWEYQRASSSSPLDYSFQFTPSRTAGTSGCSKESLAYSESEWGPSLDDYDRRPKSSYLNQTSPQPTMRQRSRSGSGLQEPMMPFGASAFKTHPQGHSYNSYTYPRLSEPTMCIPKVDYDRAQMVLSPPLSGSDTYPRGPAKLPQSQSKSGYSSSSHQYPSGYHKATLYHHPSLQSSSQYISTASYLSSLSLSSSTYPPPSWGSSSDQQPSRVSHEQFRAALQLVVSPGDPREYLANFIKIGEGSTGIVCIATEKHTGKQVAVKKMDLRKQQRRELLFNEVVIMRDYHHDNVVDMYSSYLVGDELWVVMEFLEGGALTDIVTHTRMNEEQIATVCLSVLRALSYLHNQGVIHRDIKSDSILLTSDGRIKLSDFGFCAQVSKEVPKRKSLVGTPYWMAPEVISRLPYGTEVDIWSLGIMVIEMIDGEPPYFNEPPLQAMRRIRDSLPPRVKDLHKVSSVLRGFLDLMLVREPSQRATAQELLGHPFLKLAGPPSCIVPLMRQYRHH

Chain of PAK6 (Q9NQU5 whole entry): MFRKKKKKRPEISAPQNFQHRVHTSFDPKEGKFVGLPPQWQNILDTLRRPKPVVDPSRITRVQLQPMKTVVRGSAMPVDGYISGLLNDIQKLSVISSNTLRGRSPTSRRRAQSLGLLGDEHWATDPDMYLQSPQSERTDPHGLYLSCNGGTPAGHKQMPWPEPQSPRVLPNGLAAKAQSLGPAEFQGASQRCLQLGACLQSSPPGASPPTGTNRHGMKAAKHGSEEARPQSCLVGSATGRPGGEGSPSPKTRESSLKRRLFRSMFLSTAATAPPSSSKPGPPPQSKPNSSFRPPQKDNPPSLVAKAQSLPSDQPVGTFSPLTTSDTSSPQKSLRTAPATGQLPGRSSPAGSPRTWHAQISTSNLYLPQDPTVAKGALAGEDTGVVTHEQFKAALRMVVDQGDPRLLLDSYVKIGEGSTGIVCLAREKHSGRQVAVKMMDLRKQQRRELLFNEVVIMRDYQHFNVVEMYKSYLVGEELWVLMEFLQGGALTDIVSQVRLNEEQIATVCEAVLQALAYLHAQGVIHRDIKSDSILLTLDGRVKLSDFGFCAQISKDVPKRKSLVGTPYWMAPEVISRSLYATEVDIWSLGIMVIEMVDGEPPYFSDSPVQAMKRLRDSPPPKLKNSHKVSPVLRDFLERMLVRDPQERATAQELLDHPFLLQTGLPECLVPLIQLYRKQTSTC

Row | SMILES | Kd [1] [µM] | Kd [2] [µM] | Kd [3] [µM] | Kd [4] [µM] | Kd ([2]; PAK Inhibitor Affinity Assay, read-out: Kd PAK2) [µM] | Kd ([3]; PAK Inhibitor Affinity Assay, read-out: Kd PAK1) [µM] | Kd [5] [µM]
1 | Nc1nc(Nc2ccc(S(N)(=O)=O)cc2)nn1C(=O)c1c(F)cccc1F [JNJ-7706621] | < 5 | ≥ 10 | ≥ 10 | – | – | – | –
2 | CCOc1cc2ncc(C#N)c(Nc3ccc(F)c(Cl)c3)c2cc1NC(=O)/C=C/CN(C)C [EKB-569] | ≥ 10 | – | – | ≥ 10 | ≥ 10 | < 5 | ≥ 10
